In patent publication US20240317749A1, “THERAPEUTIC COMPOUNDS” (priority 2021, published 2024):
≈ marks a conversion by molar mass, not a printed value.

Assays:
[1] = tested on: P. aeruginosa ATCC 27853; experiment: MIC assay, CLSI broth microdilution in CAMH broth; format: cell-based, Pseudomonas aeruginosa; details: P. aeruginosa ATCC 278538
Method: (§1) MIC assays for various Gram-negative and Gram-positive strains were conducted in accordance with the CLSI guidelines for broth microdilution. A 96-well plate containing CAMH broth with 2-fold serial dilution of compounds was inoculated with log-phase bacterial at 5×10^5 CFU/mL. The final volume in each well was 100 μL. Each compound was tested in duplicate. The microtiter plates were incubated in an aerobic environment for 18 hours at 37° C. Then the bacterial growth was tested by reading the plate with a SpectraMax iD5 plate reader (Molecular Devices, Inc.) at 600 nm. The MIC was defined as the lowest compound concentration that inhibited bacteria growth.
(§2) The following Gram-negative and Gram-positive strains were used in the aerobic MIC procedure: • P. aeruginosa ATCC 27853 • A. baumannii ATCC 19606 • E. coli ATCC 25922 • E. coli W4573 • E. coli N43 • K. pneumoniae ATCC 10031 • K. pneumoniae ATCC 13883 • S. sonnei ATCC 29930 • P. mirabilis ATCC 29906 • Methicillin-susceptible S. aureus (MSSA) ATCC 19636 • Methicillin-resistant S. aureus (MRSA) ATCC 33951

[2] = tested on: E. coli ATCC 25922; experiment: MIC assay, CLSI broth microdilution in CAMH broth; format: cell-based, Escherichia coli
Method: as §1, §2

[3] = tested on: E. coli N43; experiment: MIC assay, CLSI broth microdilution in CAMH broth; format: cell-based, Escherichia coli
Method: as §1, §2

[4] = tested on: E. coli W4573; experiment: MIC assay, CLSI broth microdilution in CAMH broth; format: cell-based, Escherichia coli
Method: as §1, §2

[5] = tested on: K. pneumoniae ATCC 10031; experiment: MIC assay, CLSI broth microdilution in CAMH broth; format: cell-based, Klebsiella pneumoniae; details: K. pneumonias ATCC 10031
Method: as §1, §2

[6] = tested on: K. pneumoniae ATCC 13883; experiment: MIC assay, CLSI broth microdilution in CAMH broth; format: cell-based, Klebsiella pneumoniae; details: K. pneumonias ATCC 13883
Method: as §1, §2

[7] = tested on: P. mirabilis ATCC 29906; experiment: MIC assay, CLSI broth microdilution in CAMH broth; format: cell-based, Proteus mirabilis
Method: as §1, §2

[8] = tested on: Methicillin-susceptible S. aureus (MSSA) ATCC 19636; experiment: MIC assay, CLSI broth microdilution in CAMH broth; format: cell-based, Staphylococcus aureus
Method: as §1, §2

[9] = tested on: Methicillin-resistant S. aureus (MRSA) ATCC 33591; experiment: MIC assay, CLSI broth microdilution in CAMH broth; format: cell-based, Staphylococcus aureus
Method: as §1, with “growth. […]” for “growth.”

[10] = tested on: N. gonorrhoeae ATCC 49226; experiment: MIC assay for N. gonorrhoeae, broth microdilution in Todd-Hewitt (TH) broth; format: cell-based; details: Neisseria gonorrhoeae, ATCC49226; Antibacterial Activity against N. gonorrhoeae ATCC 49226 in TH
From the text: MIC assays for N. gonorrhoeae were done using the ATCC 49226 strain. The procedure guidelines recommended by the Clinical and Laboratory Standards Institute (CLSI) for the broth microdilution MIC assay were modified by substituting […]. Also, the recommended bacterial inoculum was modified to meet the high inoculum demands needed for N. gonorrhoeae growth. A 96-well plate containing TH broth with 2-fold serial dilution of compounds was inoculated with log-phase bacterial at 2.5×10^7 CFU/mL. The final volume in each well was 200 μL. Each compound was tested in duplicate. The microtiter plates were incubated in an […] environment for 24 hours at 37° C. using the candle jar technique. Then the bacterial growth was tested by reading the plate with a SpectraMax iD5 plate reader (Molecular Devices, Inc.) at 600 nm. The MIC was defined as the lowest compound concentration that inhibited bacteria growth.

| Structure (SMILES) | Intrinsic MIC in CAMH [1] | Intrinsic MIC in CAMH [2] | Intrinsic MIC in CAMH [3] | Intrinsic MIC in CAMH [4] | Intrinsic MIC in CAMH [5] | Intrinsic MIC in CAMH [6] | Intrinsic MIC in CAMH [7] | Intrinsic MIC in CAMH [8] | Intrinsic MIC in CAMH [9] | MIC [10] [µg/mL] |
| --- | --- | --- | --- | --- | --- | --- | --- | --- | --- | --- |
| CC[C@H]1OC(=O)[C@H](C)[C@@H](O[C@H]2C[C@@](C)(OC)[C@@H](O)[C@H](C)O2)[C@H](C)[C@@H](O[C@@H]2O[C@H](C)C[C@H](N(C)C)[C@H]2O)[C@](C)(O)C[C@@H](C)CN(C)[C@H](C)[C@@H](O)[C@]1(C)O [AZM, azithromycin, reference compound] | 64¤ | 8¤ | 1¤ | 4¤ | 2¤ | 32¤ | 64¤ | 1¤ | 1¤ |  |
| Nc1nc(N)c2ccc3c(ccn3Cc3ccc(Br)cc3)c2n1 [Example 2, 7-(4-bromobenzyl)-7H-pyrrolo[2,3-h]quinazoline-2,4-diamine] | >128¤ | 2¤ | ≤0.25¤ | 1¤ | ≤0.25¤ | 4¤ | 4¤ | ≤0.25¤ | ≤0.25¤ | 2 (≈ 5.43 µM) |
| Nc1nc(N)c2ccc3c(ccn3Cc3cccc(Br)c3)c2n1 [Example 3, 7-(3-bromobenzyl)-7H-pyrrolo[2,3-h]quinazoline-2,4-diamine] | >64¤ | 32¤ | 1¤ | >64¤ | 4¤ | >64¤ | >64¤ | 2¤ | 2¤ | 0.5 (≈ 1.36 µM) |
| N#Cc1cccc(Cn2ccc3c4nc(N)nc(N)c4ccc32)c1 [Example 6, 3-((2,4-diamino-7H-pyrrolo[2,3-h]quinazolin-7-yl)methyl)benzonitrile] | >64¤ | 4¤ | ≤0.015¤ | 4¤ | ≤0.125¤ | 16¤ | >64¤ | 0.5¤ | 0.5¤ | 4 (≈ 12.7 µM) |
| Nc1nc(N)c2ccc3c(ccn3Cc3ccc(C(F)(F)F)cc3)c2n1 [Example 7, 7-(4-(trifluoromethyl)benzyl)-7H-pyrrolo[2,3-h]quinazoline-2,4-diamine] | >64¤ | 2¤ | ≤0.015¤ | 2¤ | ≤0.125¤ | 8¤ | >64¤ | ≤0.25¤ | ≤0.25¤ | 2 (≈ 5.6 µM) |
| Nc1nc(N)c2ccc3c(ccn3Cc3ccc(C(=O)c4ccccc4)cc3)c2n1 [Example 16, (4-((2,4-diamino-7H-pyrrolo[2,3-h]quinazolin-7-yl)methyl)phenyl)(phenyl)methanone] | >64¤ | 4¤ | ≤0.015¤ | 2¤ | ≤0.125¤ | >64¤ | >64¤ | ≤0.25¤ | ≤0.25¤ | 4 (≈ 10.2 µM) |
| Nc1nc(N)c2ccc3c(ccn3Cc3ccc4ccccc4c3)c2n1 [Example 21, 7-(naphthalen-2-ylmethyl)-7H-pyrrolo[2,3-h]quinazoline-2,4-diamine] | >128¤ | >64¤ | 8¤ | >64¤ | 8¤ | >64¤ | >64¤ | 4¤ | 4¤ | 2 (≈ 5.89 µM) |
| Nc1nc(N)c2ccc3c(ccn3C3C=CCCC3)c2n1 (centres unmarked) [Example 26, 7-(cyclohex-2-en-1-yl)-7H-pyrrolo[2,3-h]quinazoline-2,4-diamine] | >128¤ | 16¤ | <0.125¤ | 16¤ | 2¤ | 64¤ | >64¤ | 1¤ | 1¤ | 4 (≈ 14.3 µM) |
| Cc1cc2c3nc(N)nc(N)c3ccc2n1Cc1ccc(-c2ccccc2C#N)cc1 [Example 31, 4′-((2,4-diamino-8-methyl-7H-pyrrolo[2,3-h]quinazolin-7-yl)methyl)-[1,1′-biphenyl]-2-carbonitrile] | >128¤ | >64¤ | <0.125¤ | >64¤ | 0.5¤ | >64¤ | >64¤ | 0.25¤ | 0.5¤ | 1 (≈ 2.47 µM) |
| COc1cc(Cc2cnc(N)nc2N)cc(OC)c1OC [TMP, reference compound] | >64¤ | 0.5¤ | <0.125¤ | 0.5¤ | 0.25¤ | 2¤ | 1¤ | 0.5¤ | 0.5¤ |  |
